# Experiments:
# rat neuroid cells B50 [1] = assay: Toxicity evaluation, cell viability by Alamar Blue; type: cell-based; conditions: 12.5, 25, 50, 100, or 200 μmol/1, 24 hours, FIG. 5
# Procedure: Rat neuroid cells B50 were seeded in 12-well plates and then cultured. Edaravone (RC), ED2AP, or BisEp-C3 was added to each well so as to achieve a predetermined concentration (12.5, 25, 50, 100, or 200 μmol/1), and then incubated for 24 hours at 37° C. and 5% CO2. Cell viability in each well after the culture was measured using Alamar Blue.
# [2] = test system: superoxide produced by the neutrophils; assay: Superoxide production amount of PMA-stimulated neutrophils, CLA chemiluminescence; type: cell-based, human; conditions: 0-200 or 0-5,000 μmol/1, PMA 100 ng/ml, 30 minutes, control being 100, FIG. 2
# Procedure: For examining the reactive oxygen-eliminating effect of the vasodilator of the present invention, the superoxide produced by the neutrophils when the neutrophils isolated from the peripheral blood of healthy individuals were stimulated with PMA (phorbor-12-myristate-13-acetate) was used. The superoxide production amount was measured by chemiluminescence using CLA (2-methyl-6-phenyl-3, 7-dihydroimidazo[1,2-α]pyrazine-3-one).
# First, ED2AP, BisEp-C3, edaravone, BisEp-C1, or BisEp-C1 (H2) was added to a neutrophil of 4×10^5 cells per sample so as to achieve a predetermined concentration (0, 12.5, 25, 50, 100, or 200 μmol/1, or 0, 125, 250, 500, 1,250, 2,500 or 5,000 μmol/1) with […] of CLA, and then the cell suspension was seeded in flat-bottomed 96-well plates. The volume of the suspension was 200 μl/well, and phenol red-free Ca+, Mg+ HBSS was used as the solution. […] After the stimulation, a plate reader (Envision 2104 Multilabel Reader produced by Perkin Elmer Co., Ltd.) was used to measure the chemiluminescence value over time for 30 minutes with the PMA stimulation time being a reference. […] In addition, as a control, the superoxide production amount was measured in the same manner except that each compound was not added. The relative value of the superoxide production amount when each compound was added was calculated with the superoxide production amount of the control being 100.
# rat neuroid cells B50 [3] = assay: Toxicity evaluation on byproducts after reaction with singlet oxygen; type: cell-based; conditions: byproducts after reaction with singlet oxygen, 50, 100, or 200 μmol/1, FIG. 6
# Procedure: In a cell-free system, the RB was added to media (5% FCS-containing RPMI-1640 media) containing edaravone, ED2AP, and BisEp-C3 having a predetermined concentration (50, 100, or 200 μmol/1) and then irradiated with LED (G-LED) at 525 nm to generate singlet oxygen, whereby reacting each compound with singlet oxygen. The cell viability was measured in the same manner as in Example 7(1), except that the culture solution after the reaction was used as a medium of the neuroid cell B50. As a negative control (NC), the cell viability was measured in the same manner except that each compound and […] were not added in the cell-free system. Further, as a control (RB), the cell viability was measured in the same manner except that each compound was not added and only […] was added in the cell-free system.
# rat neuroid cells B50 [4] = assay: Cytoprotection against singlet oxygen (Rose Bengal + G-LED), Alamar Blue fluorescence; type: cell-based; conditions: 0, 12.5, 25, 50, or 100 μmol/1, RB 200 nmol/1 + G-LED 5 minutes, negative control being 100, FIG. 3
# Procedure: Edaravone, ED2AP and BisEp-C3 were examined for whether they had the function of alleviating neuronopathy. Specifically, singlet oxygen was generated by combining Rose Bengal (RB), which is a sensitizer, with green light (G-LED), and the function of alleviating the cytotoxicity of the generated singlet oxygen was examined with the cellular activity being an indicator.
# First, rat neuroid cells B50 were cultured in 12-well dishes at 2×10^5 cells/well (medium: RPMI-1640 medium containing 5% FCS) overnight. After the culturing, the medium of each well was replaced with HBSS (1,000 μl/well; phenol red-free Ca+, Mg+) containing 200 nmol/1 RB and edaravone, ED2AP, or BisEp-C3 having a predetermined concentration (0, 12.5, 25, 50, or 100 μmol/1). The dish was then irradiated with G-LED for 5 minutes to generate singlet oxygen. Thereafter, the medium of each well was replaced with 1,000 μl of HBSS, and Alamar Blue was added. The dish was then allowed to react for about 2 hours in an incubator at 37° C. and 5%CO2. After the reaction, fluorescence intensity (excitation wavelength: λ- 560 nm, fluorescence wavelength: λ-595 nm) was measured with a plate reader (infinite200, Tecan Trading AG). In this experimental system, the higher the cellular activity, the more Alamar Blue is taken up and the higher the fluorescence intensity. As a control, fluorescence intensity was measured in the same manner except that sodium azide (Azide, NaN3) was added instead of the compounds so as to achieve a concentration of 4 mmol/1. As a negative control (NC), fluorescence intensity was measured in the same manner except that RB was not added. The relative value of the fluorescence intensity in the sample to which each compound was added was calculated with the fluorescence intensity of the negative control being 100.
# [5] = test system: superoxide produced by the neutrophils; assay: Superoxide-eliminating ability of PBS solutions before and after storage for 10 days; type: cell-based, human; conditions: PBS solution stored for 10 days versus immediately after preparation, 0-200 μmol/1, FIG. 4
# Procedure: First, ED2AP, BisEp-C3, edaravone, BisEp-C1, or BisEp-C1 (H2) was added to a neutrophil of 4×10^5 cells per sample so as to achieve a predetermined concentration (0, 12.5, 25, 50, 100, or 200 μmol/1, or 0, 125, 250, 500, 1,250, 2,500 or 5,000 μmol/1) with […] of CLA, and then the cell suspension was seeded in flat-bottomed 96-well plates. The volume of the suspension was 200 μl/well, and phenol red-free Ca+, Mg+ HBSS was used as the solution. In addition, the neutrophil was stimulated by adding PMA so as to achieve a concentration of 100 ng/ml. After the stimulation, a plate reader (Envision 2104 Multilabel Reader produced by Perkin Elmer Co., Ltd.) was used to measure the chemiluminescence value over time for 30 minutes with the PMA stimulation time being a reference. The measurement interval was 30 seconds. […] In addition, as a control, the superoxide production amount was measured in the same manner except that each compound was not added. The relative value of the superoxide production amount when each compound was added was calculated with the superoxide production amount of the control being 100.
# PBS solutions of ED2AP, BisEp-C3, and edaravone were prepared in the same manner as in Example 2 and stored for 10 days. […] Then, the relative value of the superoxide production amount of each sample was calculated with the superoxide production amount of the sample of 0 μmol/1 being 100.
Compound,cell viability (cytotoxicity) (rat neuroid cells B50 [1]),relative value of the superoxide production amount [2],cell viability (cytotoxicity of byproducts) (rat neuroid cells B50 [3]),relative value of the fluorescence intensity (rat neuroid cells B50 [4]),superoxide-eliminating ability after storage [5]
"CC1=NN(c2ccccc2)C(=O)/C1=C/C=C/c1c(C)nn(-c2ccccc2)c1O [ED2AP, 2,4-dihydro-4-[3-(5-hydroxy-3-methyl-1-phenyl-1H-pyrazol-4-yl)-2-propen-1-ylidene]-5-methyl-2-phenyl-3H-pyrazol-3-one]",not cytotoxic at any concentration,remarkably suppressed superoxide production amount,not cytotoxic at any concentration,recovered in a concentration-dependent manner,maintained the superoxide-eliminating ability equivalent to that immediately after preparation
"CCN1N=C(C)/C(=C\C=C\c2c(C)nn(CC)c2O)C1=O [BisEp-C3, 2,4-dihydro-4-[3-(1-ethyl-5-hydroxy-3-methyl-1H-pyrazol-4-yl)-2-propen-1-ylidene]-2-ethyl-5-methyl-3H-pyrazol-3-one]",not cytotoxic at any concentration,remarkably suppressed superoxide production amount,not cytotoxic at any concentration,recovered in a concentration-dependent manner,maintained the superoxide-eliminating ability equivalent to that immediately after preparation

# — patent US12569470B2, “Vasodilator and use thereof” (Bioradical Research Institute Corp., priority 2019, dated 2026)
